US20190231893A1, “METHODS OF TREATING CANCER” (priority 2017, published 2019)
“Also recorded” adds a separate entry of the source. Square brackets hold non-standard residues; d marks the D form. Peptide text beside a SMILES is read from it. * marks the point of attachment. Dolaproine = CO[C@@H]([C@@H]1CCCN1)[C@@H](C)C(=O)O; Dil = CC[C@H](C)[C@H](NC)[C@@H](CC(=O)O)OC; X1 = C[C@@H](N*)[C@@H](O)c1ccccc1; NMeV = CN[C@H](C(=O)O)C(C)C

Experiments:
A431 cells = assay: Drug matrix screen: siRNA knockdown and cell viability; format: cell-based; conditions: for shift in drug sensitivity (cell viability) upon siRNA knockdown of γ-tubulin ring complex genes: knockdown of GCNT1, TUBGCP4 and TUBGCP6 relative to CON3 siRNA control, at drug concentrations yielding <60% cell viability; for drug sensitivity / cell killing upon EGFR siRNA knockdown: EGFR siRNA control
Experimental: An siRNA library was produced based targeting genes identified from methods listed above. The siRNA panel in 96 well plates (Dharmacon) was diluted to 66 nM/15 μl was combined with equal volume of RNAiMax Lipofectamine (Life Technologies) diluted to 0.15×/15 μl, pipette mixed thoroughly then allowed to incubate for 15 minutes at room temperature before addition of 30 μl/well to A431, U87MG_del, and U87MG_EGFR cell lines seeded in 96 well plates at 4500 cells/70 μl/well. Plates were incubated in 37° C. 5% CO2 incubator for 18-24 hours prior to addition of 10 μl drug (MMAE: 1.5 nM final conc., depatuxizumab mafodotin: 18 nM final conc.) or vehicle (phosphate-buffered saline, PBS). Cell viability was assessed post 48 hour drug treatment via Cell Titer Glo (Promega) for A431 cell line or SRB cell stain assay (Sulforhodamine B assay and Chemosensitivity, Voigt et al.) for U87MG_del2.7 and U87MG_EGFR cell lines following recommended protocols with the following exception: media was aspirated off Cell Titer Glo (CTG) plates and 100 μl 1:5 diluted CTG in PBS added per well, covered with foil, rotated to mix 15 minutes prior to reading on Victor chemilluminescent reader. The assay was performed using triplicate plates per drug/vehicle as well as last row of plate contained control siRNA CON3 incubated with vehicle to control for any plate effect. Each plate also contained a row of positive and negative siRNA controls treated with drug for normalization of effects of siRNA KD within and across plates. Effect of siRNA KD assessed via combination of triplicate reactions per siRNA/drug normalized to CON3 siRNA/PBS control and then normalized to CON3 siRNA/drug to determine shift to drug with siRNA KD.
A protocol similar to high-throughput screen was used, except siRNA was loaded in a 3×6 well matrix in a 96 well plate with the following siRNAs (CON3, GCNT1, TUBGCP4, TUBGCP6) per quarter plate. EGFR siRNA was loaded in exterior rows as a control. Drug was diluted to 5 serial-5 dilutions (MMAE, Vincristine, Paclitaxel) or 5 serial 3-dilutions (depatuxizumab mafodotin) along with no drug control and added to triplicate wells (starting concentrations MMAE: 100 nM; Vincristine: 2000 nM; Paclitaxel: 2000 nM; depatuxizumab mafodotin: 99 nM).

[1] = test system: glioblastoma with EGFR amplification; assay: Phase 1 study M12-356 (NCT01800695), tumor response; format: in vivo, human; conditions: patients with EGFR-amplified rGBM; FIG. 1
Experimental: In a Phase 1 study (M12-356, NCT01800695) of depatuxizumab mafodotin in patients with newly diagnosed glioblastoma (nGBM) and recurrent glioblastoma (rGBM) with EGFR amplification, responses in patients with rGBM correlated with EGFR amplification in pre-treatment, archival tumor tissue. Gene amplification was determined by fluorescence in situ hybridization (FISH). Two probes were used: locus-specific EGFR probe and chromosome enumeration probe (CEP) 7. FIG. 1 illustrates change in tumor size in patients with EGFR-amplified rGBM.
Tumor samples for study were from biopsies taken prior to entry onto depatuxizumab mafodotin trial M12-356 (NCT01800695). M12-356 is an open-label, phase 1, 3-arm study: Arm A (depatuxizumab mafodotin+radiation/temozolomide (TMZ) in newly diagnosed GBM; Arm B (depatuxizumab mafodotin+TMZ in newly diagnosed GBM as adjuvant therapy, or in recurrent GBM); and Arm C (depatuxizumab mafodotin monotherapy in recurrent GBM). Arms B and C had and expansion cohort in subjects with centrally confirmed EGFR amplified recurrent GBM.

Row | Molecule | shift in drug sensitivity (cell viability) upon siRNA knockdown of γ-tubulin ring complex genes (A431 cells; FIG. 3) | shift in drug sensitivity (cell viability) upon siRNA knockdown of γ-tubulin ring complex genes (A431 cells; FIG. 3, listed as vincristine) | drug sensitivity / cell killing upon EGFR siRNA knockdown (A431 cells; FIG. 3) | drug sensitivity / cell killing upon EGFR siRNA knockdown (A431 cells; FIG. 3, listed as depatux-m) | shift in drug sensitivity (cell viability) upon siRNA knockdown of γ-tubulin ring complex genes (A431 cells; FIG. 3, listed as depatux-m) | clinical response (change in tumor size) [1]
1 | CC[C@H](C)[C@@H]([C@@H](CC(=O)N1CCC[C@H]1[C@H](OC)[C@@H](C)C(=O)N[C@H](C)[C@@H](O)c1ccccc1)OC)N(C)C(=O)[C@@H](NC(=O)[C@@H](NC)C(C)C)C(C)C [MMAE, monomethyl auristatin E] (H-[NMeV]V[Dil][Dolaproine]-X1) | impacted sensitivity; also recorded: more sensitive; also recorded: increased sensitivity | – | – | – | – | –
2 | CC[C@]1(O)C[C@H]2CN(CCc3c([nH]c4ccccc34)[C@@](C(=O)OC)(c3cc4c(cc3OC)N(C=O)[C@H]3[C@@](O)(C(=O)OC)[C@H](OC(C)=O)[C@]5(CC)C=CCN6CC[C@]43[C@@H]65)C2)C1 [Vincristine] | increased sensitivity | impacted sensitivity; also recorded: more sensitive | – | – | – | –
3 | depatuxizumab mafodotin | increased sensitivity | – | loss of drug sensitivity | abrogated drug internalization and cell killing | impacted sensitivity; also recorded: more sensitive; also recorded: sensitization | not all patients with EGFR amplification responded
4 | CC(=O)O[C@H]1C(=O)[C@@]2(C)[C@H]([C@H](OC(=O)c3ccccc3)[C@]3(O)C[C@H](OC(=O)[C@H](O)[C@@H](NC(=O)c4ccccc4)c4ccccc4)C(C)=C1C3(C)C)[C@]1(OC(C)=O)CO[C@@H]1C[C@@H]2O [Paclitaxel] | no additional shift in sensitivity | – | – | – | – | –
